In patent US20260226068A1, “IMIDAZOTRIAZINE IL-17A MODULATORS AND USES THEREOF” (DICE ALPHA, INC., priority 2023, published 2026):

What was measured:
IL-17A/A = target: T1, IL-17A/A (Homo sapiens, UniProt Q16552); assay: IL-17A/A HEK-Blue cell assay (SEAP reporter); type: cell-based; details: HEK-Blue IL-17A reporter cells, IL17A/A 5 ng/mL, 20 hours, SEAP read at A630; read-out: HEK-Blue IL17AA (IC50 for IL-17A/A inhibition)
T1 construct: purchased Genscript Z03228
T1 sequence (Q16552 24-155): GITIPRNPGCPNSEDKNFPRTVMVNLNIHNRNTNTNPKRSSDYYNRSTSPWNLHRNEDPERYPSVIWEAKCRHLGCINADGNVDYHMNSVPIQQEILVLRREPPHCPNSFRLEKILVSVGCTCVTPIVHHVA

IL-17A/F = target: T2, IL-17A/F (Homo sapiens, UniProt Q16552+Q96PD4); assay: IL-17A/F HEK-Blue cell assay (SEAP reporter); type: cell-based; details: HEK-Blue IL-17A reporter cells, IL17A/F 5 ng/mL, 20 hours, SEAP read at A630; read-out: HEK-Blue IL17AF (IC50 for IL-17A/F inhibition)
T2 construct: purchased R&D Systems
T2 sequence (Q16552 24-155): T1 sequence (Q16552 24-155)
T2 sequence (Q96PD4 31-163): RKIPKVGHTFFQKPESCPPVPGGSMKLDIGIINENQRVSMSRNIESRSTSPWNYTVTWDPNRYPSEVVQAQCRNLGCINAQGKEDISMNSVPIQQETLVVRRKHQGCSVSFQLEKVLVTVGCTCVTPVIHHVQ

Structure (SMILES) | IC50 (IL-17A/A) [nM] | IC50 (IL-17A/F) [nM]
Cc1nonc1C(=O)N[C@H](c1cn2nc(C[C@H]3C[C@@H](C(F)(F)F)CNC3=O)c(C3CCOCC3)nc2n1)[C@H]1C[C@H](C2CC2)C1 [Compound 318, N—((S)-((1r,3S)-3-cyclopropylcyclobutyl)(2-(((3R,5R)-2-oxo-5-(trifluoromethyl)piperidin-3-yl)methyl)-3-(tetrahydro-2H-pyran-4-yl)imidazo[1,2-b][1,2,4]triazin-6-yl)methyl)-4-methyl-1,2,5-oxadiazole-3-carboxamide] | < 100 | > 1000
CCc1nonc1C(=O)N[C@H](c1cn2nc(C[C@H]3C[C@@H](C(F)(F)F)CNC3=O)c(C3CCOCC3)nc2n1)[C@H]1C[C@H](C2CC2)C1 [Compound 319, N—((S)-((1r,3S)-3-cyclopropylcyclobutyl)(2-(((3R,5R)-2-oxo-5-(trifluoromethyl)piperidin-3-yl)methyl)-3-(tetrahydro-2H-pyran-4-yl)imidazo[1,2-b][1,2,4]triazin-6-yl)methyl)-4-ethyl-1,2,5-oxadiazole-3-carboxamide] | < 100 | > 1000
Cn1nccc1C(=O)N[C@H](c1cn2nc(C[C@H]3C[C@@H](C(F)(F)F)CNC3=O)c(C3CCOCC3)nc2n1)C(C1CC1)C1CC1 [Compound 320, N—((S)-2,2-dicyclopropyl-1-(2-(((3R,5R)-2-oxo-5-(trifluoromethyl)piperidin-3-yl)methyl)-3-(tetrahydro-2H-pyran-4-yl)imidazo[1,2-b][1,2,4]triazin-6-yl)ethyl)-1-methyl-1H-pyrazole-5-carboxamide] | < 100 | 100 to 1000
CCn1nccc1C(=O)N[C@H](c1cn2nc(C[C@H]3CC(F)(F)CNC3=O)c(C3CCOCC3)nc2n1)C(C1CC1)C1CC1 [Compound 323] | < 100 | > 1000
CCn1nccc1C(=O)N[C@H](c1cn2nc(C[C@H]3C[C@@H](C(F)(F)F)CNC3=O)c(N3CCOCC3)nc2n1)C1CCCCC1 [Compound 326, N—((S)-cyclohexyl(3-morpholino-2-(((3R,5R)-2-oxo-5-(trifluoromethyl)piperidin-3-yl)methyl)imidazo[1,2-b][1,2,4]triazin-6-yl)methyl)-1-ethyl-1H-pyrazole-5-carboxamide] | < 100 | 100 to 1000
CCc1nonc1C(=O)N[C@H](c1cn2nc(C[C@H]3C[C@@H](C(F)(F)F)CNC3=O)c(N3CCOCC3)nc2n1)C1CCCCC1 [Compound 327, N—((S)-cyclohexyl(3-morpholino-2-(((3R,5R)-2-oxo-5-(trifluoromethyl)piperidin-3-yl)methyl)imidazo[1,2-b][1,2,4]triazin-6-yl)methyl)-4-ethyl-1,2,5-oxadiazole-3-carboxamide] | < 100 | > 1000
CCn1nccc1C(=O)N[C@H](c1cn2nc(C[C@@H]3CC(F)(F)CNC3=O)c(C3CCOCC3)nc2n1)C(C1CC1)C1CC1 [Compound 328] | < 100 | 100 to 1000

Continued, values first:

IC50 (IL-17A/A) [nM] | IC50 (IL-17A/F) [nM] | Structure (SMILES)
< 100 | 100 to 1000 | CCn1nccc1C(=O)N[C@H](c1cn2nc(C[C@H]3C[C@@H](C(F)(F)F)CNC3=O)c(CNCC(F)(F)F)nc2n1)C1CCC(F)(F)CC1 [Compound 331, N—((S)-(4,4-difluorocyclohexyl)(2-(((3R,5R)-2-oxo-5-(trifluoromethyl)piperidin-3-yl)methyl)-3-(((2,2,2-trifluoroethyl)amino)methyl)imidazo[1,2-b][1,2,4]triazin-6-yl)methyl)-1-ethyl-1H-pyrazole-5-carboxamide]
< 100 | > 1000 | CCn1nccc1C(=O)N[C@H](c1cn2nc(C[C@H]3C[C@@H](C(F)(F)F)CNC3=O)c(CN3CC(F)(F)C3)nc2n1)C1CCC(F)(F)CC1 [Compound 332, N—((S)-(3-((3,3-difluoroazetidin-1-yl)methyl)-2-(((3R,5R)-2-oxo-5-(trifluoromethyl)piperidin-3-yl)methyl)imidazo[1,2-b][1,2,4]triazin-6-yl)(4,4-difluorocyclohexyl)methyl)-1-ethyl-1H-pyrazole-5-carboxamide]
< 100 | > 1000 | CCn1nccc1C(=O)N[C@H](c1cn2nc(C[C@H]3C[C@@H](C(F)(F)F)CNC3=O)c(CN3CCC(F)(F)C3)nc2n1)C1CCC(F)(F)CC1 [Compound 333, N—((S)-(4,4-difluorocyclohexyl)(3-((3,3-difluoropyrrolidin-1-yl)methyl)-2-(((3R,5R)-2-oxo-5-(trifluoromethyl)piperidin-3-yl)methyl)imidazo[1,2-b][1,2,4]triazin-6-yl)methyl)-1-ethyl-1H-pyrazole-5-carboxamide]
< 100 | 100 to 1000 | CCn1nccc1C(=O)N[C@H](c1cn2nc(C[C@H]3C[C@@H](C(F)(F)F)CNC3=O)c(Cn3ccnc3)nc2n1)C1CCC(F)(F)CC1 [Compound 334, N—((S)-(3-((1H-imidazol-1-yl)methyl)-2-(((3R,5R)-2-oxo-5-(trifluoromethyl)piperidin-3-yl)methyl)imidazo[1,2-b][1,2,4]triazin-6-yl)(4,4-difluorocyclohexyl)methyl)-1-ethyl-1H-pyrazole-5-carboxamide]
< 100 | 100 to 1000 | CCn1nccc1C(=O)N[C@H](c1cn2nc(C[C@H]3C[C@@H](C(F)(F)F)CNC3=O)c(CN(C)CC(F)(F)F)nc2n1)C1CCC(F)(F)CC1 [Compound 335, N—((S)-(4,4-difluorocyclohexyl)(3-((methyl(2,2,2-trifluoroethyl)amino)methyl)-2-(((3R,5R)-2-oxo-5-(trifluoromethyl)piperidin-3-yl)methyl)imidazo[1,2-b][1,2,4]triazin-6-yl)methyl)-1-ethyl-1H-pyrazole-5-carboxamide]
< 100 | 100 to 1000 | CCn1nccc1C(=O)N[C@H](c1cn2nc(C[C@H]3C[C@@H](C(F)(F)F)CNC3=O)c(CN3CC(C(F)(F)F)C3)nc2n1)C1CCC(F)(F)CC1 [Compound 336, N—((S)-(4,4-difluorocyclohexyl)(2-(((3R,5R)-2-oxo-5-(trifluoromethyl)piperidin-3-yl)methyl)-3-((3-(trifluoromethyl)azetidin-1-yl)methyl)imidazo[1,2-b][1,2,4]triazin-6-yl)methyl)-1-ethyl-1H-pyrazole-5-carboxamide]
< 100 | > 1000 | CCn1nccc1C(=O)N[C@H](c1cn2nc(C[C@H]3C[C@@H](C(F)(F)F)CNC3=O)c(CN3CC(C)(F)C3)nc2n1)C1CCC(F)(F)CC1 [Compound 337, N—((S)-(4,4-difluorocyclohexyl)(3-((3-fluoro-3-methylazetidin-1-yl)methyl)-2-(((3R,5R)-2-oxo-5-(trifluoromethyl)piperidin-3-yl)methyl)imidazo[1,2-b][1,2,4]triazin-6-yl)methyl)-1-ethyl-1H-pyrazole-5-carboxamide]
< 100 | > 1000 | CCn1nccc1C(=O)N[C@H](c1cn2nc(C[C@H]3C[C@@H](C(F)(F)F)CNC3=O)c(CN3C(C)CC3C)nc2n1)C1CCC(F)(F)CC1 (stereo partly drawn) [Compound 338, N-((1S)-(4,4-difluorocyclohexyl)(3-((2,4-dimethylazetidin-1-yl)methyl)-2-(((3R,5R)-2-oxo-5-(trifluoromethyl)piperidin-3-yl)methyl)imidazo[1,2-b][1,2,4]triazin-6-yl)methyl)-1-ethyl-1H-pyrazole-5-carboxamide]
